Data as given in patent US12280026B2, “Use of repirinast in the prophylaxis or treatment of renal fibrosis or kidney disease” (ALGERNON PHARMACEUTICALS INC., priority 2018, dated 2025).
“Also recorded” adds a separate entry of the source. Marks after values point to notes of the source that are not given here.

Legend:
[1] = test system: C57BL/6 mice with UUO surgical ligation; experiment: Example 2: UUO mice, kidney weight evaluation; type: in vivo; details: group mean, UUO, female C57BL/6 mice, PO QD days 1-14, mg/kg: Telmisartan 3, Bemithyl 200, Repirinast 30, Telmisartan+Bemithyl 3+200, Telmisartan+Repirinast 3+30, Cenicriviroc 40, Bromantane 40
Experimental: (§1) In this example, healthy young female C57BL/6 mice were used for the study. At the commencement of the study, mice were between 9-12 weeks of age, weighing 23-25 g. All the mice were obtained from Charles River Laboratories.
(§2) The mice were maintained in a controlled environment with a temp 70-72° F., humidity 30-70%, with a photo cycle of 12 hours of light and 12 hours of dark. They were provided with Harlan Teklad 2018 standard maintenance mouse chow diet and drinking water ad libitium.
(§3) After five days of acclimatization, the mice were grouped according to their body weight. There were ten groups of ten mice each. Nine groups of ten mice each underwent UUO as described above and the other group of ten mice underwent a sham procedure to serve as a no-surgery control.
(§4) Following surgery, the mice were divided into 10 individual study groups of 10 mice each and, following post-surgical recovery, administered a once-daily oral treatment for 14 days. The mice in 8 of the 10 study groups had all received the UUO surgical ligation and were treated individually with a distinct pharmacologic compound as set out in Table 6. The mice in 2 of the 10 study groups were treated individually with a pharmaceutically acceptable vehicle with no active ingredient. The pharmaceutically acceptable vehicle in all groups was 0.5% carboxymethyl cellulose (CMC). All mice were sacrificed with CO2 on post-surgical day 15.
(§5) The dose selected for the animal studies was determined by taking the maximum known human daily dose, dividing by the average weight of an adult (˜60-70 kg) to get a human mg/kg dose. That number was multiplied by 12 to convert to a mouse dose based on conventional dosing tables. See Nair and Jacob, J Basic Clin Pharm March 2016-May 2016, 7(2):27-31.
Kidney weight: The UUO was then examined in situ to ensure that the surgical ligation ties remained patent. Both the ligated (UUO) and non-ligated kidneys were removed for analysis. Weights of both kidneys were measured using a laboratory balance.
(§6) The data are presented as the mean obtained from Microsoft Excel or GraphPad Prism version 5.00 for Windows (GraphPad Software, San Diego California USA). Data were analyzed using two-way ANOVA using Bonferroni and Tamhane post-tests. Differences between groups were considered significant at p<0.05.
Kidney Weight Evaluation: Kidney weight, which indicates functional and pathological changes in the kidney, was evaluated by measuring the weight of both the ligated (UUO) and non-ligated kidneys as previously described. The ligated and non-ligated kidney weights of each study group consisted of the respective kidney weight averages of all mice in each study group.

[2] = test system: C57BL/6 mice with UUO surgical ligation; experiment: Example 2: UUO mice, renal fibrosis evaluation (Sirius Red histology score); type: in vivo
Experimental: as §1, §2, §3, §4, §5
Histopathology: Formalin-fixed kidney cross-section samples were subjected histopathological scoring with Sirius Red staining, and imaged at a magnification of ×20, using standard techniques. All three sections were stained and evaluated. The analysis was performed by a board-certified veterinarian pathologist. The presence of interstitial damage and severity score was assessed according to the following criteria: 0=normal; 1=light; 2=moderate; 3=severe.
as §6
Renal Fibrosis Evaluation: Renal fibrosis and interstitial damage was evaluated by histochemical staining of renal cross-sections with Sirius Red as previously described. The Histology Score of each study group consisted of the histology score average of all mice in each study group.

[3] = test system: C57BL/6 mice with UUO surgical ligation; experiment: Example 2: UUO mice, renal function evaluation (plasma BUN, creatinine); type: in vivo
Experimental: as §1, §2, §3, §4, §5
Serum collection: A blood sample was then collected from all mice and plasma analyzed for urea nitrogen and creatinine. Plasma was stored at −80° C. for possible future analysis.
as §6
Renal Function Evaluation: Renal function and disease progression was evaluated by BUN (blood urea nitrogen) as previously described. The BUN of each study group consisted of the BUN average of all mice in each study group.

[4] = Example 2: UUO mice, mean body weight change following surgery; type: in vivo, C57BL/6 mice; details: UUO, female C57BL/6 mice, PO QD days 1-14, mg/kg: Telmisartan 3, Bemithyl 200, Repirinast 30, Telmisartan+Bemithyl 3+200, Telmisartan+Repirinast 3+30, Cenicriviroc 40, Bromantane 40
Experimental: as §1, §2, §3, §4, §5
Body weight: The body weights were measured on days 1, 4, 7, 10 and 14 using a laboratory balance.
Body weights were measured on post-surgical days 1, 4, 7, 10 and 14 as previously described. The mean body weight change of each study group was calculated using the body weight average of all mice in each study group.

[5] = Example 2, mg/kg PO QD: Telmisartan 3, Bemithyl 200, Repirinast 30, Telmisartan+Bemithyl 3+200, Telmisartan+Repirinast 3+30, Cenicriviroc 40, Bromantane 40

CCCc1nc2c(C)cc(-c3nc4ccccc4n3C)cc2n1Cc1ccc(-c2ccccc2C(=O)O)cc1 [Telmisartan, 2-(4-{[4-Methyl-6-(1-methyl-1H-1,3-benzodiazol-2-yl)-2-propyl-1H-1,3-benzodiazol-1-yl]methyl}phenyl)benzoic acid]
Drained Left Kidney (g) ([1]; ligated kidney drained): 0.1853* g
Excised Left Kidney ([1]; ligated kidney): 0.411 g
Right Kidney (g) ([1]; unligated kidney): 0.1263* g
Level of kidney fibrosis / histology score compared to vehicle or other agents, in words [2, 5]: statistically insignificant improvements; also recorded: did not show significant reductions
Histology Score ([2]; Sirius Red, 0=normal, 1=light, 2=moderate, 3=severe, group mean, UUO, female C57BL/6 mice, PO QD days 1-14, mg/kg: Telmisartan 3, Bemithyl 200, Repirinast 30, Telmisartan+Bemithyl 3+200, Telmisartan+Repirinast 3+30, Cenicriviroc 40, Bromantane 40): 1.62*#
Reduction of fibrosis (%) (versus vehicle) ([2]; from histology score, UUO, female C57BL/6 mice, PO QD days 1-14, mg/kg: Telmisartan 3, Bemithyl 200, Repirinast 30, Telmisartan+Bemithyl 3+200, Telmisartan+Repirinast 3+30, Cenicriviroc 40, Bromantane 40): 33%
Level of BUN compared to vehicle or other agents, in words [3, 5]: did not reduce levels of BUN; also recorded: did not show significant reductions
BUN ([3]; plasma at sacrifice day 15, group mean, * significant vs vehicle Bonferroni, # Tamhane (p<0.05), UUO, female C57BL/6 mice, PO QD days 1-14, mg/kg: Telmisartan 3, Bemithyl 200, Repirinast 30, Telmisartan+Bemithyl 3+200, Telmisartan+Repirinast 3+30, Cenicriviroc 40, Bromantane 40): 23.5 mg/dL
Creatinine ([3]; plasma at sacrifice day 15, group mean, UUO, female C57BL/6 mice, PO QD days 1-14, mg/kg: Telmisartan 3, Bemithyl 200, Repirinast 30, Telmisartan+Bemithyl 3+200, Telmisartan+Repirinast 3+30, Cenicriviroc 40, Bromantane 40): 0.20 mg/dL
Mean Body Weight Change Following Surgery, Day 1 ([4]; Day 1): 0 g
Mean Body Weight Change Following Surgery, Day 4 ([4]; Day 4): -0.24 g
Mean Body Weight Change Following Surgery, Day 7 ([4]; Day 7): 0.39 g
Mean Body Weight Change Following Surgery, Day 10 ([4]; Day 10): 0.45 g
Mean Body Weight Change Following Surgery, Day 14 ([4]; Day 14): 0.58 g
